The record followed here is ChEMBL document CHEMBL6083267, “Rational fragment-based design of compounds targeting the PWWP domain of the HRP family” (Eur J Med Chem, 2024).

Sequence of PC4 and SFRS1-interacting protein (O75475 whole entry): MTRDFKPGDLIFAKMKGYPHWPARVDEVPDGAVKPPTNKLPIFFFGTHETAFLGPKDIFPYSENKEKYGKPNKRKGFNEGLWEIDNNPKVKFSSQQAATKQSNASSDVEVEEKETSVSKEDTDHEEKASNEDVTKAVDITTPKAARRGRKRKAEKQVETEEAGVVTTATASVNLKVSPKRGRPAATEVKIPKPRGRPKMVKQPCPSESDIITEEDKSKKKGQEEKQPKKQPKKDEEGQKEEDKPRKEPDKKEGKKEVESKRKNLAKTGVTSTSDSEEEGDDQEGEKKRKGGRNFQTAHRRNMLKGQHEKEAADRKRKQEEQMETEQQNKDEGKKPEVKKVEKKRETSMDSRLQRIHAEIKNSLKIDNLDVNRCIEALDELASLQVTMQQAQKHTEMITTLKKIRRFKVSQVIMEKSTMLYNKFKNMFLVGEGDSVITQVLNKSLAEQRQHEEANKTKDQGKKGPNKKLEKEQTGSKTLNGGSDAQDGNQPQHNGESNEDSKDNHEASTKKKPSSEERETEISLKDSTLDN

The experiment concerns the target PC4 and SFRS1-interacting protein (Homo sapiens, UniProt O75475).
Description: Binding affinity to N-terminal His10-tagged LEDGF/P75 PWWP domain (1 to 110 residues) (unknown origin) expressed in Escherichia coli assessed as dissociation constant incubated for overnight by NMR analysis
The term Kd denotes the constant that tells how readily two partners part at equilibrium. Read a high Kd as lower affinity. Consider `CCS(=O)(=O)c1ccc(C2CCCCN2)cc1` (stereo unspecified), for which the dissociation constant Kd came to 526 µM.
As for `Nc1ccc(CNCc2cncc(Br)c2)cc1`, the figure is 147 µM; as for `CCS(=O)(=O)c1ccccc1NC(=O)CCl`, 700 µM.
In the case of `CCS(=O)(=O)c1ccccc1NC(=O)COc1cccc(CC(=O)O)c1` it was 590 µM; in that of `NCc1cncc(Br)c1`, 216 µM; in that of `NC(=O)CCN1CCCC1c1ccccc1` (stereo unspecified), 363 µM.
